Experimental data published in paper PMC10746112, “Synthesis and Pro-Apoptotic Effects of Nitrovinylanthracenes and Related Compounds in Chronic Lymphocytic Leukaemia (CLL) and Burkitt’s Lymphoma (BL)” (Molecules, 2023).
Several values for one entry are separate records, joined by “and”; a condition that tells them apart may be missing. Equal entries are not always repeated.

Tests used:
[1] = system: DG-75 Burkitt’s lymphoma cell line; conditions: human, 48 h, 10 µM
[2] = system: MUTU-I Burkitt’s lymphoma cell line; conditions: human, 24 h, 10 µM
[3] = system: MUTU-I Burkitt’s lymphoma cell line; assay: alamarBlue cell viability assay; conditions: MUTU-I, 24 h; for viability at 1 µM: read-out: % Viable Cells Remaining MUTU-1, 1 µM, 24 h; for viability at 10 µM: read-out: % Viable Cells Remaining MUTU-1, 10 µM, 24 h
[4] = system: DG-75 Burkitt’s lymphoma cell line; assay: alamarBlue cell viability assay; conditions: Homo sapiens, DG-75, 48 h; for viability at 1 µM: read-out: % Viable Cells Remaining DG-75, 1 µM, 48 h; for viability at 10 µM: read-out: % Viable Cells Remaining DG-75, 10 µM, 48 h
[5] = system: MUTU-I Burkitt’s lymphoma cell line; conditions: nitrostyrenes, 24 h, cited from earlier work
MUTU-1 cells = system: MUTU-1 cells; design: method as in earlier work; conditions: nitrostyrenes and taxol, MTT assay, reported data; cited from earlier work
PGA-1 CLL cell line = assay: alamarBlue cell viability assay; conditions: 24 h; for % Viability PGA-1: 10 µM; for viability at 1 µM / viability at 10 µM: CLL cell; for viability at 1 µM: read-out: % Viability PGA-1, 1 µM, 24 h; for viability at 10 µM: read-out: % Viability PGA-1, 10 µM, 24 h
HG-3 CLL cell line = assay: alamarBlue cell viability assay; conditions: 24 h; for viability at 10 µM: read-out: % Viability HG-3, 10 µM, 24 h
MUTU-I BL cells = assay: Annexin V/PI apoptotic assay (FACS); format: cell-based; conditions: 10 µM, 24 h, total (early + late) apoptosis
Description: (§1) The chemotherapeutic drug taxol was used as a positive control. The pro-apoptotic effects of the selected nitrostyrene compounds 11g, 11h, 11i, 11j, 11k and 11l (10 μM) were determined using FITC (fluorescein isothiocyanate), Annexin V/PI (propidium iodide) staining and FACS (fluorescence-activated cell sorting) analysis to characterise the mode of cellular death induced by the synthesised compounds. Four populations were produced in this assay: Annexin-V- and PI-negative (Q4, healthy cells), Annexin-V-positive and PI-negative (Q3, early apoptosis), Annexin-V- and PI-positive (Q2, late apoptosis) and Annexin-V-negative and PI-positive (Q1, necrosis), which were easily identified and quantified. Apoptosis was assessed as % total apoptosis by a combination of early and late apoptosis (Q3 and Q2, respectively). […] The identification of compounds that can induce apoptosis in cancer cells is required in the development of potential lead structures for anticancer drugs.
(§2) The BL cells DG-75 and MUTU-I (750,000) were treated at 37 °C with either vehicle (0.1% (v/v) EtOH), […] taxol (10 μM) and incubated for 24 h (MUTU-1) or 48 h (DG-75). The CLL cells PGA1 and HG3 (1 × 10^6 cells/mL) were treated at 37 °C with either vehicle (1% (v/v) DMSO) or the nitrostyrene compounds 19a (10 μM, 5 μM and 1 μM) and 19g, 19i, 19l and 19m (10 μM and 1 μM) for 48 h. The cells were then harvested by centrifugation at 400× g in a temperature-controlled Sorvall centrifuge and rinsed with 0.5 mL of Ca^2+ Annexin-V-binding buffer (0.1 M HEPES, pH 7.4; 0.14 M NaCl; 25 mM CaCl2). The samples were resuspended in 50 µL FITC Annexin V (diluted 1:33 in Ca^2+ Annexin V-binding buffer), incubated on ice for 10 min (protected from light), washed with Annexin-V-binding buffer and re-suspended in 500 µL of propidium iodide (PI) solution (0.5 µg/mL). The samples were analysed within 1 h using a BD Accuri C6 flow cytometer counting 10,000 cells and analysed using the FlowJo software (FlowJo LLC, Ashland, OR, USA) package.

DG-75 BL cells = assay: Annexin V/PI apoptotic assay (FACS); format: cell-based; conditions: 10 µM, 48 h, total (early + late) apoptosis
Description: as §1, §2

DG-75 cells = system: DG-75 cells; design: method as in earlier work; conditions: nitrostyrenes and taxol, MTT assay, reported data; cited from earlier work
Ramos BL cell line = assay: alamarBlue cell viability assay; format: cell-based; conditions: Homo sapiens, 24 h; for viability at 1 µM: read-out: % Viable Cells Remaining Ramos 24 h 1 µM; for viability at 10 µM: read-out: % Viable Cells Remaining Ramos 24 h 10 µM
Description: (§3) Cells were seeded at a density of 2.5 × 10^4 cells/well (MCF-7, MDA-MB-231 cells), 1 × 10^4 cells/well (HL-60 cells), 1–5 × 10^4 cells per well (BL MUTU-I, DG-75 cells) and 2 × 10^5 cells/well [HG-3, PGA-1 (CLL cells)], Ramos, BJAB (BL cells) (200 μL per well), in 96-well plates. Cells were treated with the desired drug concentration for the appropriate time for each cell type, and the samples were incubated as required. alamarBlue (20 μL) was then added to each well and the samples further incubated in the dark at 37 °C for 4 h. Wells containing only reagent and cell culture medium in the absence of cells were used as blank controls. Ethanol was used as a vehicle, and cells were treated with 1% ethanol (v/v) in all experiments. The 96-well plates were analysed on a fluorescence plate reader (SpectraMax Gemini, Molecular Devices) (emission and excitement wavelengths of 590 nm and 544 nm, respectively), and the fluorescence was recorded. The decrease in cell viability was then calculated with reference to the vehicle samples (100% viability). EMEM medium with the addition of alamarBlue was used as a blank. Vehicle-treated cells were considered to be 100% viable, and the viabilities of each compound was calculated accordingly. […] All biochemical assays were performed in triplicate on at least three independent occasions, and the mean values were determined.

Bjab BL cell line = assay: alamarBlue cell viability assay; format: cell-based; conditions: Homo sapiens, 24 h; for viability at 1 µM: read-out: % Viable Cells Remaining Bjab 24 h 1 µM; for viability at 10 µM: read-out: % Viable Cells Remaining Bjab 24 h 10 µM
Description: as §3

[6] = system: MCF-7 human breast cancer cells; assay: alamarBlue cell viability assay; conditions: MCF7, 72 h; for viability at 1 µM: read-out: % Viable Cells Remaining MCF-7 72 h 1 µM; for viability at 10 µM: read-out: % Viable Cells Remaining MCF-7 72 h 10 µM
[7] = system: HeLa cervical cancer cells; assay: alamarBlue cell viability assay; conditions: Homo sapiens, 24 h; for viability at 1 µM: read-out: % Viable Cells Remaining HeLa 24 h 1 µM; for viability at 10 µM: read-out: % Viable Cells Remaining HeLa 24 h 10 µM
[8] = system: DG-75 Burkitt’s lymphoma cell line; conditions: nitrostyrenes, 48 h, cited from earlier work
[9] = system: HL-60 promyelocytic leukaemia cells; assay: alamarBlue cell viability assay; conditions: Homo sapiens, HL-60, 24 h; for viability at 1 µM: read-out: % Viable Cells Remaining HL60 24 h 1 µM; for viability at 10 µM: read-out: % Viable Cells Remaining HL60 24 h 10 µM

Compound | melting point | % Viable Cells Remaining DG-75 [1] | % Viable Cells Remaining MUTU-1 [2] | viability at 1 µM [3] | viability at 10 µM [3] | viability at 1 µM [4] | viability at 10 µM [4] | % Viable Cells Remaining MUTU-1 24 h 10 µM [5] | IC50 (MUTU-1 cells) | MUTU-I Apoptosis (%) (MUTU-I BL cells) | DG-75 Apoptosis (%) (DG-75 BL cells) | IC50 (DG-75 cells) | % Viable Cells Remaining MUTU-1 24 h 1 µM [5] | viability at 1 µM (Ramos BL cell line) | viability at 10 µM (Ramos BL cell line) | viability at 1 µM (Bjab BL cell line) | viability at 10 µM (Bjab BL cell line) | viability at 1 µM [6] | viability at 10 µM [6] | viability at 1 µM [7] | further results
c1ccc2c(C3CNN=N3)c3ccccc3cc2c1 (centres unmarked) [Compound 31, 4-(Anthracen-9-yl)-4,5-Dihydro-1H-1,2,3-Triazole] | 266 to 268 °C | 103.1% | 103.1% | 96% | > 90% | 96% | > 90% |  |  |  |  |  |  |  |  |  |  |  |  |  | 
CC(=O)/C=C/c1c2ccccc2cc2ccccc12 [Compound 25] |  | 100.5% | 103.2% | 107% | > 90% | 96.3% | > 90% |  |  |  |  |  |  |  |  |  |  |  |  |  | 
Cc1[nH]nnc1-c1c2ccccc2cc2ccccc12 [Compound 30b, 4-(Anthracen-9-yl)-5-Methyl-1H-1,2,3-Triazole] | 231 to 232 °C | 100.6% | 107.3% | 108% | > 90% | 96.2% | > 90% |  |  |  |  |  |  |  |  |  |  |  |  |  | 
CC/C(=C\c1cccc(Cl)c1)[N+](=O)[O-] [Compound 11k] |  |  |  |  |  |  |  | 2.39% | 1220 nM | 91.5% | 90.7% | 2360 nM |  |  |  |  |  |  |  |  | % Viability PGA-1 (PGA-1 CLL cell line): 4.34%; viability at 1 µM (PGA-1 CLL cell line): 3.26%; % Viability HG-3 (HG-3 CLL cell line; 10 µM): 0.11%; viability at 1 µM (HG-3 CLL cell line; CLL cell, read-out: % Viability HG-3, 1 µM, 24 h): 60.7%
C/C(=C\c1ccc(Cl)cc1)[N+](=O)[O-] [Compound 11i] |  |  |  |  |  |  |  | 10.53% | 1300 nM | 84.5% | 86.4% | 2750 nM | 67.22% | 62.6% | 13.9% | 100% | 50.8% | 103% | 37.1% | 93% | viability at 10 µM [7]: 17.7%; % Viable Cells Remaining DG-75 48 h 1 µM [8]: 88.76%; % Viable Cells Remaining DG-75 48 h 10 µM [8]: 0.72%; viability at 1 µM [9]: 104%; viability at 10 µM [9]: 6.5%
CC(=CCc1c2ccccc2cc2ccccc12)[N+](=O)[O-] [Compound 20b, 9-(3-Nitrobut-2-en-1-yl)Anthracene] |  | 97.63% | 14.55% | 105% | 15 to 40% | 95.4% | 79 to 97% |  |  |  |  |  |  |  |  |  |  |  |  |  | 
CC/C(=C\c1ccc(Cl)cc1)[N+](=O)[O-] [Compound 11l] |  |  |  |  |  |  |  | 2.61% | 1180 nM | 91.3% | 85.0% | 3110 nM |  |  |  |  |  |  |  |  | 
CC/C(=C\c1ccccc1Cl)[N+](=O)[O-] [Compound 11j, (E)-1-Chloro-2-(2-nitrobut-1-en-1-yl)benzene] |  |  |  |  |  |  |  | 10.3% and 10.27% | 2180 nM | 88.3% | 72.3% | 2050 nM | 64.31% | 66.9% | 4.4% | 102% | 68.9% | 98.1% | 20.7% | 95.3% | viability at 10 µM [7]: 21.8%; % Viability PGA-1 (PGA-1 CLL cell line): 0.53%; viability at 1 µM (PGA-1 CLL cell line): 6.31%; viability at 10 µM (PGA-1 CLL cell line): 0.43%; viability at 10 µM (HG-3 CLL cell line; CLL cell): 5.61%; % Viable Cells Remaining DG-75 48 h 1 µM [8]: 79.77%; % Viable Cells Remaining DG-75 48 h 10 µM [8]: 15.89%; viability at 1 µM [9]: 99.8%; viability at 10 µM [9]: 9.1%
O=[N+]([O-])CCc1c2ccccc2cc2ccccc12 [Compound 22, 9-(2-Nitroethyl)Anthracene] | 147 to 149 °C | 99.08% | 100.6% | 105% | > 85% | 86.7% | > 85% |  |  |  |  |  |  |  |  |  |  |  |  |  | viability at 10 µM (PGA-1 CLL cell line): 75%; viability at 10 µM (HG-3 CLL cell line; CLL cell): 76%
C/C(=C\c1ccccc1Cl)[N+](=O)[O-] [Compound 11g] |  |  |  |  |  |  |  | 14.91% | 820 nM | 80.9% | 70.6% | 2750 nM | 44.16% | 53.4% | 7.7% | 82.2% | 51.9% | 81.4% | 41.7% | 87.1% | viability at 10 µM [7]: 34.2%; % Viable Cells Remaining DG-75 48 h 1 µM [8]: 75.86%; % Viable Cells Remaining DG-75 48 h 10 µM [8]: −0.08%; viability at 1 µM [9]: 73.4%; viability at 10 µM [9]: 16.5%
